From patent publication US20230023092A1, “TREATMENT OF DEPRESSION AND OTHER VARIOUS DISORDERS WITH PSILOCYBIN” (COMPASS […], priority 2019, published 2023)

Test system: healthy subjects
Assay: Phase 1 study: adverse events (TEAEs, MedDRA coded)
Type: in vivo, human
Settings: 10 mg oral
Experimental: A Phase 1 randomized, double-blind, placebo-controlled study to evaluate the effect of psilocybin on cognitive and emotional processing as compared to placebo in healthy volunteers was conducted. The study investigated the short-term (Day 7) and long-term (Day 28) effects of moderate (10 mg) and high doses (25 mg) of psilocybin on key domains of cognition, such as episodic memory, attention, working and spatial memory, social cognition and elements of executive function, including cognitive flexibility.
Each subject was assigned 1 treatment bottle containing 5 capsules packaged in a double-blind fashion, depending on the randomized treatment arm, the bottle contained one of the following: • a. Psilocybin 10 mg: 2×5-mg oral psilocybin capsules plus 3×placebo capsules • b. Psilocybin 25 mg: 5×5-mg oral psilocybin capsules • c. Placebo: 5×placebo capsules
Each 5-mg oral psilocybin capsules comprised 5 mg crystalline psilocybin in the form or Polymorph A, 12.5 mg of SMCC 50, 79.5 mg of SMCC 90, 1 mg sodium starch glycolate, 1 mg colloidal silicon dioxide, and 1 mg sodium stearyl fumarate
Adverse events: Throughout the course of the study, all AEs were monitored and recorded. Each AE was classified according to the following criteria: • i. […] Moderate: The AE produces some impairment of functioning, but is not hazardous to the subject's health. • iii. Severe: The AE produces significant impairment of functioning or incapacitation and is a definite hazard to the subject's health.
Visit 3 (V3): Drug Administration (Day 0): The subject was asked to eat a light breakfast at least two hours prior to coming to the clinic for study drug administration. On Day 0 (V3), the subject underwent the SSTS, had vital signs obtained, medications reviewed, AEs recorded and eligibility reviewed prior to being randomized to study drug. The study drug was administered to up to six subjects simultaneously in individual beds separated by a curtain. The subject was invited to put on eyeshades and headphones, lie down and listen to calming music for the rest of the session (six hours). The subject was supported 1:1 with a chaperone and supervised by the study psychiatrist and lead therapist.
During administration of psilocybin, each subject received one-on-one support from a trained assisting therapist and each dosing session was supervised by a study psychiatrist and a lead therapist. The study drug was administered simultaneously to up to six participants as a single 5-capsule oral dose (10 mg psilocybin: 2×5-mg psilocybin capsules plus 3×placebo capsules; 25 mg psilocybin: 5×5-mg psilocybin capsules; placebo: 5×placebo capsules). Twenty-five dosing sessions were completed, with up to six participants dosed simultaneously per session. Each session lasted approximately 6 to 8 hours with subjects encouraged to relax and engage in introspection for the duration. After the acute effects of the study drug had subsided, subjects were discharged.

CN(C)CCc1c[nH]c2cccc(OP(=O)(O)O)c12 [Psilocybin, psilocybin]
Hypoaesthesia, worst severity Moderate, N (%): 0
Hypoaesthesia, worst severity Severe, Events: 0
Hypoaesthesia, worst severity Severe, N (%): 0
Illusion, Events: 25
Illusion, N (%): 19 (63.3)
Illusion, worst severity Mild, Events: 7
Illusion, worst severity Mild, N (%): 7 (23.3)
Illusion, worst severity Moderate, Events: 16
Illusion, worst severity Moderate, N (%): 12 (40.0)
Illusion, worst severity Severe, Events: 0
Illusion, worst severity Severe, N (%): 0
Infections and infestations, Events: 4
Infections and infestations, N (%): 4 (13.3)
Infections and infestations, worst severity Mild, Events: 2
Infections and infestations, worst severity Mild, N (%): 2 (6.7)
Infections and infestations, worst severity Moderate, Events: 2
Infections and infestations, worst severity Moderate, N (%): 2 (6.7)
Infections and infestations, worst severity Severe, Events: 0
Infections and infestations, worst severity Severe, N (%): 0
Investigations, Events: 2
Investigations, N (%): 2 (6.7)
Investigations, worst severity Mild, Events: 2
Investigations, worst severity Mild, N (%): 2 (6.7)
Investigations, worst severity Moderate, Events: 0
Investigations, worst severity Moderate, N (%): 0
Investigations, worst severity Severe, Events: 0
Investigations, worst severity Severe, N (%): 0
Memory impairment, Events: 1
Memory impairment, N (%): 1 (3.3)
Mental fatigue, Events: 0
Mental fatigue, N (%): 0
Mood altered, Events: 23
Mood altered, N (%): 13 (43.3)
Mood altered, worst severity Mild, Events: 2
Mood altered, worst severity Mild, N (%): 2 (6.7)
Mood altered, worst severity Moderate, Events: 8
Mood altered, worst severity Moderate, N (%): 5 (16.7)
Mood altered, worst severity Severe, Events: 9
Mood altered, worst severity Severe, N (%): 6 (20.0)
Musculoskeletal and connective tissue disorders, Events: 1
Musculoskeletal and connective tissue disorders, N (%): 1 (3.3)
Musculoskeletal and connective tissue disorders, worst severity Mild, Events: 0
Musculoskeletal and connective tissue disorders, worst severity Mild, N (%): 0
Musculoskeletal and connective tissue disorders, worst severity Moderate, Events: 1
Musculoskeletal and connective tissue disorders, worst severity Moderate, N (%): 1 (3.3)
Musculoskeletal and connective tissue disorders, worst severity Severe, Events: 0
Musculoskeletal and connective tissue disorders, worst severity Severe, N (%): 0
Nausea, Events: 1
Nausea, N (%): 1 (3.3)
Nervous system disorders, Events: 35
Nervous system disorders, N (%): 21 (70.0)
Nervous system disorders, worst severity Mild, Events: 23
Nervous system disorders, worst severity Mild, N (%): 15 (50.0)
Nervous system disorders, worst severity Moderate, Events: 8
Nervous system disorders, worst severity Moderate, N (%): 6 (20.0)
Nervous system disorders, worst severity Severe, Events: 0
Nervous system disorders, worst severity Severe, N (%): 0
Paraesthesia, Events: 4
Paraesthesia, N (%): 4 (13.3)
Paraesthesia, worst severity Mild, Events: 4
Paraesthesia, worst severity Mild, N (%): 4 (13.3)
Paraesthesia, worst severity Moderate, Events: 0
Paraesthesia, worst severity Moderate, N (%): 0
Paraesthesia, worst severity Severe, Events: 0
Paraesthesia, worst severity Severe, N (%): 0
